From US12077503B2, “Substituted cyclic amides and their use as herbicides” (FMC CORPORATION, priority 2015, dated 2024)

What was measured:
Format in all cases: in vivo
[1] = tested on: sedge, umbrella (small-flower umbrella sedge, Cyperus difformis); assay: Test B flooded paddy test; settings: Flood, 500 g ai/ha; 0 to 100 scale where 0 is no effect and 100 is complete control; 13 to 15 d
Procedure, shortened: (§1)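 Percent control, visually estimated after 13–15 d in the greenhouse on a 0–100 basis, compares treated pots with untreated ones; compound was put into paddy water 3 cm above the soil when plants had two leaves.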

[2] = tested on: ducksalad (Heteranthera limosa); assay: Test B flooded paddy test; settings: Flood, 500 g ai/ha; 0 to 100 scale where 0 is no effect and 100 is complete control; 13 to 15 d
Procedure, shortened: as §1

[3] = tested on: rice (Oryra sativa); assay: Test B flooded paddy test; settings: Flood, 500 g ai/ha; 0 to 100 scale where 0 is no effect and 100 is complete control; 13 to 15 d
Procedure, shortened: as §1

[4] = tested on: barnyardgrass (Echinochloa crus-galli); assay: Test B flooded paddy test; settings: Flood, 500 g ai/ha; 0 to 100 scale where 0 is no effect and 100 is complete control; 13 to 15 d
Procedure, shortened: as §1

[5] = tested on: Galium (catchweed bedstraw, Galium aparine); assay: Test A postemergence; settings: postemergence; for Galium plant response rating: 125 g ai/ha, visual injury rating on 0 to 100 scale (0 no effect, 100 complete control), approx. 10 d; for Plant response rating, Galium: 500 g ai/ha, 0 to 100 scale, 0 no effect, 100 complete control
Procedure, shortened: (§2)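 Visual injury scores from 0, no effect, to 100, complete control, were assigned versus untreated controls roughly 10 d after treatment in the greenhouse. Test chemicals, formulated with surfactant in a non-phytotoxic solvent, were applied to planted seeds as a preemergence soil spray or postemergence to one- to two-leaf plants 2 to 10 cm tall, in loam–sand soil.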

[6] = tested on: Kochia (Kochia scoparia); assay: Test A postemergence; settings: postemergence; for Kochia plant response rating: 125 g ai/ha, visual injury rating on 0 to 100 scale (0 no effect, 100 complete control), approx. 10 d; for Plant response rating, Kochia: 500 g ai/ha, 0 to 100 scale, 0 no effect, 100 complete control
Procedure, shortened: as §2

[7] = tested on: ragweed (common ragweed, Ambrosia elatior); assay: Test A postemergence; settings: postemergence; for Ragweed plant response rating: 125 g ai/ha, visual injury rating on 0 to 100 scale (0 no effect, 100 complete control), approx. 10 d; for Plant response rating, Ragweed: 500 g ai/ha, 0 to 100 scale, 0 no effect, 100 complete control
Procedure, shortened: as §2

[8] = tested on: giant foxtail (Setaria faberii); assay: Test A postemergence; settings: postemergence; for Foxtail, Giant plant response rating: 125 g ai/ha, visual injury rating on 0 to 100 scale (0 no effect, 100 complete control), approx. 10 d; for Plant response rating, Foxtail, Giant: 500 g ai/ha, 0 to 100 scale, 0 no effect, 100 complete control
Procedure, shortened: as §2

[9] = tested on: ryegrass, Italian (Italian ryegrass, Lolium multiflorum); assay: Test A postemergence; settings: postemergence; for Ryegrass, Italian plant response rating: 125 g ai/ha, visual injury rating on 0 to 100 scale (0 no effect, 100 complete control), approx. 10 d; for Plant response rating, Ryegrass, Italian: 500 g ai/ha, 0 to 100 scale, 0 no effect, 100 complete control
Procedure, shortened: as §2

[10] = tested on: pigweed (Amaranthus retroflexus); assay: Test A postemergence; settings: postemergence; for Pigweed plant response rating: 125 g ai/ha, visual injury rating on 0 to 100 scale (0 no effect, 100 complete control), approx. 10 d; for Plant response rating, Pigweed: 500 g ai/ha, 0 to 100 scale, 0 no effect, 100 complete control
Procedure, shortened: as §2

[11] = tested on: blackgrass (Alopecurus myosuroides); assay: Test A postemergence; settings: postemergence; for Blackgrass plant response rating: 125 g ai/ha, visual injury rating on 0 to 100 scale (0 no effect, 100 complete control), approx. 10 d; for Plant response rating, Blackgrass: 500 g ai/ha, 0 to 100 scale, 0 no effect, 100 complete control
Procedure, shortened: as §2

[12] = tested on: corn (Zea mays); assay: Test A postemergence; settings: postemergence; for Corn plant response rating: 125 g ai/ha, visual injury rating on 0 to 100 scale (0 no effect, 100 complete control), approx. 10 d; for Plant response rating, Corn: 500 g ai/ha, 0 to 100 scale, 0 no effect, 100 complete control
Procedure, shortened: as §2

[13] = tested on: wheat (Triticum aestivum); assay: Test A postemergence; settings: postemergence; for Wheat plant response rating: 125 g ai/ha, visual injury rating on 0 to 100 scale (0 no effect, 100 complete control), approx. 10 d; for Plant response rating, Wheat: 500 g ai/ha, 0 to 100 scale, 0 no effect, 100 complete control
Procedure, shortened: as §2

[14] = tested on: barnyardgrass (Echinochloa crus-galli); assay: Test A postemergence; settings: postemergence; for Barnyardgrass plant response rating: 125 g ai/ha, visual injury rating on 0 to 100 scale (0 no effect, 100 complete control), approx. 10 d; for Plant response rating, Barnyardgrass: 500 g ai/ha, 0 to 100 scale, 0 no effect, 100 complete control
Procedure, shortened: as §2

[15] = tested on: Kochia (Kochia scoparia); assay: Test A preemergence; settings: for Plant response rating, Kochia: 125 g ai/ha, preemergence, 0 to 100 scale (0 no effect, 100 complete control); for Kochia plant response rating (0 to 100 scale, 0 is no effect, 100 is complete control): Preemergence, 500 g ai/ha, visual injury approx. 10 d
Procedure, shortened: as §2

[16] = tested on: ragweed (common ragweed, Ambrosia elatior); assay: Test A preemergence; settings: for Plant response rating, Ragweed: 125 g ai/ha, preemergence, 0 to 100 scale (0 no effect, 100 complete control); for Ragweed plant response rating (0 to 100 scale, 0 is no effect, 100 is complete control): Preemergence, 500 g ai/ha, visual injury approx. 10 d
Procedure, shortened: as §2

[17] = tested on: giant foxtail (Setaria faberii); assay: Test A preemergence; settings: for Plant response rating, Foxtail, Giant: 125 g ai/ha, preemergence, 0 to 100 scale (0 no effect, 100 complete control); for Foxtail, Giant plant response rating (0 to 100 scale, 0 is no effect, 100 is complete control): Preemergence, 500 g ai/ha, visual injury approx. 10 d
Procedure, shortened: as §2

[18] = tested on: ryegrass, Italian (Italian ryegrass, Lolium multiflorum); assay: Test A preemergence; settings: for Plant response rating, Ryegrass, Italian: 125 g ai/ha, preemergence, 0 to 100 scale (0 no effect, 100 complete control); for Ryegrass, Italian plant response rating (0 to 100 scale, 0 is no effect, 100 is complete control): Preemergence, 500 g ai/ha, visual injury approx. 10 d
Procedure, shortened: as §2

[19] = tested on: pigweed (Amaranthus retroflexus); assay: Test A preemergence; settings: for Plant response rating, Pigweed: 125 g ai/ha, preemergence, 0 to 100 scale (0 no effect, 100 complete control); for Pigweed plant response rating (0 to 100 scale, 0 is no effect, 100 is complete control): Preemergence, 500 g ai/ha, visual injury approx. 10 d
[20] = tested on: barnyardgrass (Echinochloa crus-galli); assay: Test A preemergence; settings: for Plant response rating, Barnyardgrass: 125 g ai/ha, preemergence, 0 to 100 scale (0 no effect, 100 complete control); for Barnyardgrass plant response rating (0 to 100 scale, 0 is no effect, 100 is complete control): Preemergence, 500 g ai/ha, visual injury approx. 10 d
Procedure, shortened: as §2

| Compound | Plant response rating, Sedge, Umbrella [1] | Plant response rating, Ducksalad [2] | Plant response rating, Rice [3] | Plant response rating, Barnyardgrass [4] | Galium plant response rating [5] | Plant response rating, Galium [5] | Kochia plant response rating [6] | Plant response rating, Kochia [6] | Ragweed plant response rating [7] | Plant response rating, Ragweed [7] | Foxtail, Giant plant response rating [8] | Plant response rating, Foxtail, Giant [8] | Ryegrass, Italian plant response rating [9] | Plant response rating, Ryegrass, Italian [9] | Pigweed plant response rating [10] | Plant response rating, Pigweed [10] | Blackgrass plant response rating [11] | Plant response rating, Blackgrass [11] | Corn plant response rating [12] | Plant response rating, Corn [12] | also measured |
| --- | --- | --- | --- | --- | --- | --- | --- | --- | --- | --- | --- | --- | --- | --- | --- | --- | --- | --- | --- | --- | --- |
| COc1ccc(NC(=O)C2C(=O)NCC2c2ccc(F)c(F)c2)cc1F (stereo not drawn) [Compound 415] | 0 | 0 | 0 | 0 | 0 | 0 | 0 | 0 | 0 | 0 | 0 | 0 | 0 | 0 | 0 | 0 | 0 | 0 | 0 | 0 | Wheat plant response rating [13]: 0; Plant response rating, Wheat [13]: 0; Barnyardgrass plant response rating [14]: 0; Plant response rating, Barnyardgrass [14]: 0; Plant response rating, Kochia [15]: 0; Kochia plant response rating (0 to 100 scale, 0 is no effect, 100 is complete control) [15]: 0; Plant response rating, Ragweed [16]: 0; Ragweed plant response rating (0 to 100 scale, 0 is no effect, 100 is complete control) [16]: 0; Plant response rating, Foxtail, Giant [17]: 0; Foxtail, Giant plant response rating (0 to 100 scale, 0 is no effect, 100 is complete control) [17]: 0; Plant response rating, Ryegrass, Italian [18]: 0; Ryegrass, Italian plant response rating (0 to 100 scale, 0 is no effect, 100 is complete control) [18]: 0; Plant response rating, Pigweed [19]: 0; Pigweed plant response rating (0 to 100 scale, 0 is no effect, 100 is complete control) [19]: 0; Plant response rating, Barnyardgrass [20]: 0; Barnyardgrass plant response rating (0 to 100 scale, 0 is no effect, 100 is complete control) [20]: 0 |
| COc1c(F)ccc(NC(=O)C2C(=O)NCC2c2ccc(F)c(F)c2)c1F (stereo not drawn) [Compound 419] | 0 | 50 | 0 | 40 | 0 | 0 | 20 | 20 | 0 | 0 | 20 | 90 | 0 | 20 | 0 | 0 | 0 | 0 | 0 | 20 | Wheat plant response rating [13]: 0; Plant response rating, Wheat [13]: 20; Barnyardgrass plant response rating [14]: 60; Plant response rating, Barnyardgrass [14]: 80; Plant response rating, Kochia [15]: 0; Kochia plant response rating (0 to 100 scale, 0 is no effect, 100 is complete control) [15]: 0; Plant response rating, Ragweed [16]: 0; Ragweed plant response rating (0 to 100 scale, 0 is no effect, 100 is complete control) [16]: 0; Plant response rating, Foxtail, Giant [17]: 80; Foxtail, Giant plant response rating (0 to 100 scale, 0 is no effect, 100 is complete control) [17]: 90; Plant response rating, Ryegrass, Italian [18]: 0; Ryegrass, Italian plant response rating (0 to 100 scale, 0 is no effect, 100 is complete control) [18]: 0; Plant response rating, Pigweed [19]: 0; Pigweed plant response rating (0 to 100 scale, 0 is no effect, 100 is complete control) [19]: 20; Plant response rating, Barnyardgrass [20]: 60; Barnyardgrass plant response rating (0 to 100 scale, 0 is no effect, 100 is complete control) [20]: 90 |
